{
  "source": "paper PMC3816525",
  "about": "(Investigational new drugs, 2011)",
  "key": {"[1]": {"conditions": "cited from earlier work"}, "clinical [2]": {"assay": "clinical", "conditions": "human, in vivo, AUC(0–24h)"}, "[3]": {"conditions": "human, in vivo"}, "[4]": {"conditions": "human, in vivo", "remark": "listed apart in the source"}, "clinical [5]": {"assay": "clinical", "conditions": "human, in vivo, AUC(0–24h)", "remark": "listed apart in the source"}, "glioblastoma multiforme": {"system": "glioblastoma multiforme", "conditions": "two trials in glioblastoma multiforme; cited from earlier work"}, "mantle cell lymphoma": {"system": "mantle cell lymphoma", "conditions": "phase II, single agent; cited from earlier work"}, "advanced breast cancer": {"system": "advanced breast cancer", "conditions": "heavily pretreated advanced breast cancer; cited from earlier work"}},
  "data": [
    {"smiles": "CCOc1cc2ncc(C#N)c(Nc3ccc(F)c(Cl)c3)c2cc1NC(=O)/C=C/CN(C)C", "note": "[EKB-569]", "values": [
      {"measurement": "MTD, single agent", "setting": "[1]; advanced solid tumors, DLT grade 3 diarrhea", "result": 75, "unit": "mg daily"},
      {"measurement": "Recommended dose in combination with FOLFIRI", "setting": "[1]; in vivo", "result": 25, "unit": "mg daily"},
      {"measurement": "AUC(0-t)", "setting": "clinical [2]; Day 6", "result": "378 ± 144", "unit": "ng·h/mL"},
      {"measurement": "AUC(0-t)", "setting": "clinical [2]; Day 7", "result": "426 ± 127", "unit": "ng·h/mL"},
      {"measurement": "AUC(0-t)", "setting": "clinical [2]; Day 9", "result": "493 ± 112", "unit": "ng·h/mL"},
      {"measurement": "Accumulation: AUC(0–24h) Day 6/Day 1", "setting": "[3]", "result": "1.78±0.56"},
      {"measurement": "Accumulation: AUC(0–24h) Day 7/Day 6", "setting": "[3]", "result": "1.19±0.28"},
      {"measurement": "Accumulation: AUC(0–24h) Day 9/Day 6", "setting": "[3]", "result": "1.40±0.33"},
      {"measurement": "Increase of AUC(0-24h) on Day 7", "setting": "[3]", "result": "about 19%"}
    ]},
    {"smiles": "CCOc1cc2ncc(C#N)c(Nc3ccc(F)c(Cl)c3)c2cc1NC(=O)/C=C/CNC", "note": "[N-desmethyl EKB-569]", "values": [
      {"measurement": "AUC(0–24h), Day 6", "setting": "[3]", "result": "52.7 ± 61.2", "unit": "ng·h/mL"},
      {"measurement": "AUC(0–24h), Day 7", "setting": "[3]", "result": "60.8 ± 52.8", "unit": "ng·h/mL"},
      {"measurement": "AUC(0–24h), Day 9", "setting": "[3]", "result": "75.2 ± 51.0", "unit": "ng·h/mL"}
    ]},
    {"smiles": "CO[C@H]1C[C@@H]2CC[C@@H](C)[C@@](O)(O2)C(=O)C(=O)N2CCCC[C@H]2C(=O)O[C@H]([C@H](C)C[C@@H]2CC[C@@H](O)[C@H](OC)C2)CC(=O)[C@H](C)/C=C(\\C)[C@@H](O)[C@@H](OC)C(=O)[C@H](C)C[C@H](C)/C=C/C=C/C=C/1C", "note": "[sirolimus]", "values": [
      {"measurement": "Accumulation: AUC(0–24h) Day 3/Day 1", "setting": "[4]", "result": "1.37±0.44"},
      {"measurement": "Accumulation: AUC(0–24h) Day 15/Day 1", "setting": "[4]", "result": "0.99±0.27"},
      {"measurement": "Accumulation: AUC(0–24h) Day 17/Day 3", "setting": "[4]", "result": "1.78±0.63"},
      {"measurement": "Change of AUC(0-24h) on Day 15 compared to day 1", "setting": "[4]", "result": "similar"},
      {"measurement": "AUC(0-t)", "setting": "clinical [5]; Day 3", "result": "437 ± 116", "unit": "ng·h/mL"},
      {"measurement": "AUC(0-t)", "setting": "clinical [5]; po, 30 mg, Day 1", "result": "348 ± 158", "unit": "ng·h/mL"}
    ]},
    {"smiles": "CO[C@H]1C[C@@H]2CC[C@@H](C)[C@@](O)(O2)C(=O)C(=O)N2CCCC[C@H]2C(=O)O[C@H]([C@H](C)C[C@@H]2CC[C@@H](OC(=O)C(C)(CO)CO)[C@H](OC)C2)CC(=O)[C@H](C)/C=C(\\C)[C@@H](O)[C@@H](OC)C(=O)[C@H](C)C[C@H](C)/C=C/C=C/C=C/1C", "note": "[temsirolimus]", "values": [
      {"measurement": "Change of AUC(0-24h) on Day 15 compared to day 1", "setting": "[4]", "result": 66, "unit": "%"},
      {"measurement": "TTP", "setting": "glioblastoma multiforme", "result": "9–38 weeks"},
      {"measurement": "Median TTP", "setting": "mantle cell lymphoma", "result": 6, "unit": "months"},
      {"measurement": "Overall response rate", "setting": "mantle cell lymphoma", "result": "38–41%"},
      {"measurement": "Partial response rate", "setting": "advanced breast cancer", "result": 9.2, "unit": "%"},
      {"measurement": "AUC(0-t)", "setting": "clinical [5]; Day 3", "result": "68.3 ± 20.4", "unit": "ng·h/mL"},
      {"measurement": "AUC(0-t)", "setting": "clinical [5]; po, 30 mg, Day 1", "result": "83.9 ± 27.6", "unit": "ng·h/mL"}
    ]}
  ]
}
